pIC50, pKi: −log10 of the molar value.
Key:
[1] = target: Cholinesterase (Equus caballus) (UniProt P81908); assay: (§1) Reversible competitive inhibition of equine serum BChE using acetylthiocholine iodide as substrate measured over 5 mins by Ellman's method
Cholinesterase [2] = target: T1, Cholinesterase (Equus caballus, UniProt P81908); assay: as §1
Acetylcholinesterase [3] = target: T2, Acetylcholinesterase (Electrophorus electricus, UniProt O42275); assay: (§2) Inhibition of electric eel AChE using acetylthiocholine iodide as substrate measured over 5 mins by Ellman's method
T2 sequence (O42275 whole entry): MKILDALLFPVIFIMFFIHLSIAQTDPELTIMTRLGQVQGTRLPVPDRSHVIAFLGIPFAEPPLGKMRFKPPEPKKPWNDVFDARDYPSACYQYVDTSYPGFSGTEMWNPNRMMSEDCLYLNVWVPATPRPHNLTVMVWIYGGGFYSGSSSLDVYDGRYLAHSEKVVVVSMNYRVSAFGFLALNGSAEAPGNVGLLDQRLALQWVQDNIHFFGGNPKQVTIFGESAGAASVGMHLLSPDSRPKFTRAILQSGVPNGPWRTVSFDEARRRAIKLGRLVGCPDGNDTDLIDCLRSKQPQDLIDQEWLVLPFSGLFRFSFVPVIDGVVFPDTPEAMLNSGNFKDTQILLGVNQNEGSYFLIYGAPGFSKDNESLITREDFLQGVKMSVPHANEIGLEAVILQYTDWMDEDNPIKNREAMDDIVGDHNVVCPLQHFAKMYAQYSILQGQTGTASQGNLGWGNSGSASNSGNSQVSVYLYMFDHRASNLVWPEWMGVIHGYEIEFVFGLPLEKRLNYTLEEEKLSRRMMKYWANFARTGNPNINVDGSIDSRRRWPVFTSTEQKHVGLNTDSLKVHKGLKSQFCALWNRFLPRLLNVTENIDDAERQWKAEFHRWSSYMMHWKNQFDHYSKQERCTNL

[4] = target: Acetylcholinesterase (Electrophorus electricus) (UniProt O42275); assay: as §2
Acetylcholinesterase (Electrophorus electricus), sequence (O42275 24-633 limits assumed): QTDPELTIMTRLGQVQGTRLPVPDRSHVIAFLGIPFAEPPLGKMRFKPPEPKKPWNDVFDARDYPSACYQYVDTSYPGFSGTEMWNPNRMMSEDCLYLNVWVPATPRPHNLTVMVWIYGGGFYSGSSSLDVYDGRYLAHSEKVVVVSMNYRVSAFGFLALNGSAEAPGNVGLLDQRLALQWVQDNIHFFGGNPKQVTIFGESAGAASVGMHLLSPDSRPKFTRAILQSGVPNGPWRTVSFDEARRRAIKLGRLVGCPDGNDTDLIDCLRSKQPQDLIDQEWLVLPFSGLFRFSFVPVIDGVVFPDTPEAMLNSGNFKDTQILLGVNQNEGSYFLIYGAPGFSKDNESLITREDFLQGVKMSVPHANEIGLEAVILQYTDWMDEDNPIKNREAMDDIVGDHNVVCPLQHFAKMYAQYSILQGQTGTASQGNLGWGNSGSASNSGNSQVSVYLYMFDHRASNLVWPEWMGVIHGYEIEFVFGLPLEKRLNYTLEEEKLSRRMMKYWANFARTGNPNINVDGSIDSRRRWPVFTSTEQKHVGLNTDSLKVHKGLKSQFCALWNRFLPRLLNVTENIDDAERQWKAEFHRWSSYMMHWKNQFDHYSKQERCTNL

Acetylcholinesterase [5] = target: T3, Acetylcholinesterase (Homo sapiens, UniProt P22303); assay: Reversible competitive inhibition of human AChE using acetylthiocholine iodide as substrate measured over 5 mins by Dixon plot analysis
T3 sequence (P22303 whole entry): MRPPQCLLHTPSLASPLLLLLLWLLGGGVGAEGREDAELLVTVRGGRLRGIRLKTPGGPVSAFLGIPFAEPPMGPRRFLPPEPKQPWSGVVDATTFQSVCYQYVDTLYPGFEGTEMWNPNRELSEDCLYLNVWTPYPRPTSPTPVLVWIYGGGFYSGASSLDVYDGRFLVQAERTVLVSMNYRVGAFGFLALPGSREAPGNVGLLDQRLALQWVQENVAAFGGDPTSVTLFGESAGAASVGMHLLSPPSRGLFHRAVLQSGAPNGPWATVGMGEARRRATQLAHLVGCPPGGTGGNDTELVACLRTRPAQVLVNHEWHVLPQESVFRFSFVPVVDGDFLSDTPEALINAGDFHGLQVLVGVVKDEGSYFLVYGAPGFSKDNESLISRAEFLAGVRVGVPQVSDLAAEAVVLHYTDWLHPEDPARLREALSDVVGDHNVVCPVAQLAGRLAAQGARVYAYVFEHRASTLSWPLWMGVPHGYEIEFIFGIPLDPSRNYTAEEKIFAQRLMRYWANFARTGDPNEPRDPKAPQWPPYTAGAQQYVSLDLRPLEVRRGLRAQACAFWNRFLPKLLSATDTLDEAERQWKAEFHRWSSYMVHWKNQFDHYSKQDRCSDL

Acetylcholinesterase [6] = target: T2, Acetylcholinesterase; assay: Reversible competitive inhibition of electric eel AChE using acetylthiocholine iodide as substrate measured over 5 mins by Dixon plot analysis
Cholinesterase [7] = target: T1, Cholinesterase; assay: Inhibition of equine serum BChE using acetylthiocholine iodide as substrate measured over 5 mins by Dixon plot analysis
Acetylcholinesterase [8] = target: T3, Acetylcholinesterase; assay: Inhibition of human AChE using acetylthiocholine iodide as substrate measured over 5 mins by Ellman's method
[9] = Toxicity in Balb/c mouse hemidiaphragm assessed as effect on amplitude of indirectly evoked tetanic muscle contractions at 8.43 uM after 60 mins; assay type: tissue-based, Diaphragm; conditions: 1 h
[10] = Toxicity in Balb/c mouse hemidiaphragm assessed as effect on directly evoked muscle twitch amplitudes at 8.43 uM after 60 mins; assay type: tissue-based, Diaphragm; conditions: 1 h
[11] = target: Acetylcholinesterase (Electrophorus electricus) (UniProt O42275); assay: Inhibition of electric eel AChE using acetylthiocholine iodide as substrate at 8.43 uM measured over 5 mins by Ellman's method relative to control
[12] = Toxicity in Balb/c mouse hemidiaphragm assessed as effect on amplitude of endplate potentials after 30 to 60 mins mins in presence of conotoxin GIIIB; assay type: tissue-based, Diaphragm
[13] = Toxicity in Balb/c mouse hemidiaphragm assessed as effect on endplate potentials half decay after 30 to 60 mins mins in presence of conotoxin GIIIB; assay type: tissue-based, Diaphragm
[14] = Toxicity in Balb/c mouse hemidiaphragm assessed as effect on amplitude of directly evoked tetanic muscle contractions at 8.43 uM after 60 mins; assay type: tissue-based, Diaphragm; conditions: 1 h
[15] = Toxicity in Balb/c mouse hemidiaphragm assessed as effect on indirectly evoked muscle twitch amplitudes at 8.43 uM after 60 mins; assay type: tissue-based, Diaphragm; conditions: 1 h
[16] = target: Cholinesterase (Equus caballus) (UniProt P81908); conditions: 1 mM
Description: Inhibition of equine serum BChE at 1 mM

Cholinesterase (Equus caballus), sequence (P81908 whole entry): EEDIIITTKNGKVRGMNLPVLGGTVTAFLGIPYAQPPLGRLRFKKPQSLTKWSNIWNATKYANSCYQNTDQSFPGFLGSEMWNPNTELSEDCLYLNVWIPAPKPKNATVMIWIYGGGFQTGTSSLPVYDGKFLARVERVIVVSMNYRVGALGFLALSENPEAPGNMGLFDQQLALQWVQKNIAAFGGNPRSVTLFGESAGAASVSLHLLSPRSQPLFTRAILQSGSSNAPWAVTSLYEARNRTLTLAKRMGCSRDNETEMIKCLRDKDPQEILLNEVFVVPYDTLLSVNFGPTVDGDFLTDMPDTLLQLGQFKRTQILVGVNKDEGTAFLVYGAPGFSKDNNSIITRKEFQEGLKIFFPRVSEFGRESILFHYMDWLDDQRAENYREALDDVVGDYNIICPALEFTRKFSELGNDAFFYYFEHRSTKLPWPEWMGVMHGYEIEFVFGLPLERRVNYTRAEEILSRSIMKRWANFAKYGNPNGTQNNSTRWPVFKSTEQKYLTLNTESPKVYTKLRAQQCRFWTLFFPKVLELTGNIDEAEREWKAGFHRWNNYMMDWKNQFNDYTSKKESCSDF
T1 sequence (P81908 whole entry): as above

Compound | inhibition [1] | pIC50 (Cholinesterase [2]) | pIC50 (Acetylcholinesterase [3]) | inhibition [4] | pKi (Acetylcholinesterase [5]) | pKi (Acetylcholinesterase [6]) | pKi (Cholinesterase [7]) | pIC50 (Acetylcholinesterase [8]) | inhibition (Acetylcholinesterase [8]) | Activity [9] | Activity [10] | inhibition [11] [%] | Activity [12] | Activity [13] | Activity [14] | Activity [15] | inhibition [16] [%]
O=C1C2=C(C3=NCCc4c[nH]c1c43)C1(C=CN2)C=C(Br)C(O)C(Br)=C1 (stereo not given) | Dose-dependent effect | 4.80 | 4.84 | Dose-dependent effect | 4.01 | 5.46 | 4.76 | 3.82 | Dose-dependent effect |  |  |  |  |  |  |  | 
CNC(=O)Oc1ccc2c(c1)[C@]1(C)CCN[C@@H]1N2 |  | 4.55 | 5.52 |  |  |  |  | 4.84 |  |  |  |  |  |  |  |  | 
O=C1C=C2S[C@H]3C[C@]2(C=C1Br)C1=C(N3)C(=O)c2[nH]cc3c2C1=NCC3 [DISCORHABDIN B] | Dose-dependent effect | 3.86 | 5.24 | Dose-dependent effect | 4.64 | 5.72 | 4.12 | 4.31 | Dose-dependent effect |  |  |  |  |  |  |  | 
O=C1C2=C3C4=[N+](CCc5c[nH]c1c54)[C@@H]1C(=O)C=C4S[C@@H](C[C@@]43[C@H]1O)N2 [DISCORHABDIN L] | Dose-dependent effect | 3.27 | 4.59 | Dose-dependent effect |  | 4.82 |  | 3.80 | Dose-dependent effect |  |  |  |  |  |  |  | 
O=C(O)C(F)(F)F.O=C1CC[C@@]2(C=CNC3=C2C2=NCCc4c[nH]c(c42)C3=O)C=C1Br | Dose-dependent effect | 5.15 | 5.89 | Dose-dependent effect | 4.25 | 5.80 | 5.30 | 3.94 | Dose-dependent effect | Non-Toxic | Non-Toxic | 80 | Non-Toxic | Non-Toxic | Non-Toxic | Non-Toxic | 
COc1ccc2c3c1O[C@H]1C[C@@H](O)C=C[C@@]31CCN(C)C2 |  |  |  |  |  |  |  |  |  |  |  |  |  |  |  |  | 80.3
